For assay [1], the system named is PC-3M. Description: Cytotoxicity in human PC-3M cells assessed as inhibition of cell proliferation measured by CCK-8 assay. It is filed as functional, cell-based.
In another assay the test system is MCF7. Description: Cytotoxicity in human MCF7 cells assessed as inhibition of cell proliferation measured by CCK-8 assay. It is filed as functional, cell-based.
The test system of another assay is HMEC. Description: Cytotoxicity in human HMEC cells assessed as inhibition of cell proliferation measured by CCK-8 assay. It counts as functional, cell-based.
Another assay relates to HepG2. Description: Cytotoxicity in human HepG2 cells assessed as inhibition of cell proliferation measured by CCK-8 assay. It is filed as functional, cell-based.
The next assay deals with A549. Kind of assay: Cytotoxicity in human A549 cells assessed as inhibition of cell proliferation measured by CCK-8 assay. It is filed as functional, cell-based.
Assay [2] concerns PC-3M. Description: Induction of apoptosis in human PC-3M cells assessed as necrotic cells at 5 nM measured after 48 hrs by Annexin V/PI staining based flow cytometry method (reference value: 0.25%). It counts as functional.
Assay [3] has as its system PC-3M. Description: Induction of apoptosis in human PC-3M cells assessed as late apoptotic cells at 10 nM measured after 48 hrs by Annexin V/PI staining based flow cytometry method (reference value: 2.88%). It is filed as functional.
Assay [4] concerns PC-3M. Description: Induction of apoptosis in human PC-3M cells assessed as late apoptotic cells at 1 nM measured after 48 hrs by Annexin V/PI staining based flow cytometry method (reference value: 2.88%). It is filed as functional.
Assay [5] has as its system PC-3M. Description: Induction of apoptosis in human PC-3M cells assessed as early apoptotic cells at 10 nM measured after 48 hrs by Annexin V/PI staining based flow cytometry method (reference value: 1.25%). It is filed as functional.
The subject of assay [6] is PC-3M. Kind of assay: Induction of apoptosis in human PC-3M cells assessed as late apoptotic cells at 5 nM measured after 48 hrs by Annexin V/PI staining based flow cytometry method (reference value: 2.88%). It counts as functional.
Assay [7] concerns PC-3M. Description: Induction of apoptosis in human PC-3M cells assessed as early apoptotic cells at 5 nM measured after 48 hrs by Annexin V/PI staining based flow cytometry method (reference value: 1.25%). It counts as functional.
In assay [8] the test system is PC-3M. Kind of assay: Induction of apoptosis in human PC-3M cells assessed as viable cells at 10 nM measured after 48 hrs by Annexin V/PI staining based flow cytometry method (reference value: 95.6%). It counts as functional. As to conditions: read-out: Activity.
Assay [9] deals with PC-3M. Description: Induction of apoptosis in human PC-3M cells assessed as necrotic cells at 1 nM measured after 48 hrs by Annexin V/PI staining based flow cytometry method (reference value: 0.25%). It is filed as functional.
The subject of assay [10] is PC-3M. Description: Induction of apoptosis in human PC-3M cells assessed as viable cells at 1 nM measured after 48 hrs by Annexin V/PI staining based flow cytometry method (reference value: 95.6%). As to conditions: read-out: Activity. It counts as functional.
Assay [11] concerns PC-3M. Kind of assay: Induction of apoptosis in human PC-3M cells assessed as viable cells at 5 nM measured after 48 hrs by Annexin V/PI staining based flow cytometry method (reference value: 95.6%). It is filed as functional. As to conditions: read-out: Activity.
In assay [12] the test system is PC-3M. Description: Induction of apoptosis in human PC-3M cells assessed as necrotic cells at 10 nM measured after 48 hrs by Annexin V/PI staining based flow cytometry method (reference value: 0.25%). It is filed as functional.
For assay [13], the system named is PC-3M. Kind of assay: Induction of apoptosis in human PC-3M cells assessed as early apoptotic cells at 1 nM measured after 48 hrs by Annexin V/PI staining based flow cytometry method (reference value: 1.25%). It is filed as functional.
The test system of assay [14] is PC-3M. Kind of assay: Antiproliferative activity against human PC-3M cells assessed as inhibition of cell proliferation at 1 nM measured after 9 days by Crystal violet staining based colony formation assay. It counts as functional. As to conditions: time 9.0 day.
Assay [15] concerns PC-3M. Kind of assay: Induction of apoptosis in human PC-3M cells assessed by apoptotic changes in cells at 1 uM measured after 48 hrs by DAPI staining based microscopic method relative to PPT. It counts as functional, cell-based.
In assay [16] the target is RAC-alpha serine/threonine-protein kinase (Homo sapiens) (UniProt P31749). Description: Inhibition of Akt in human PC-3M cells assessed as reduction of […] expression at 1 to 10 nM measured by western blot assay. It counts as cell-based. As to conditions: dose 1-10 nM.
The subject of assay [17] is PC-3M. Kind of assay: Induction of apoptosis in human PC-3M cells assessed by broken nucleus at 10 nM measured after 48 hrs by DAPI staining based microscopic method. It is filed as functional, cell-based.
Assay [18] relates to PC-3M. Kind of assay: Inhibition of PI3K in human PC-3M cells assessed as reduction of phosphorylated PI3K expression at 1 to 10 nM measured by western blot assay. It counts as cell-based. As to conditions: dose 1-10 nM.
The subject of assay [19] is PC-3M. Kind of assay: Induction of apoptosis in human PC-3M cells assessed as increase of Bax expression at 1 to 10 nM measured by western blot assay. It counts as functional, cell-based. As to conditions: dose 1-10 nM.
The test system of assay [20] is PC-3M. Kind of assay: Anti-migration activity in human PC-3M cells measured after 24 hrs by microscopy based wound scratch method. It is filed as functional, cell-based. As to conditions: dose 1-10 nM.
In assay [21] the test system is PC-3M. Kind of assay: Induction of apoptosis in human PC-3M cells assessed as increase of cleaved caspase-3 expression at 1 to 10 nM measured by western blot assay. It counts as functional, cell-based. As to conditions: dose 1-10 nM.
Assay [22] deals with PC-3M. Kind of assay: Induction of apoptosis in human PC-3M cells assessed by formation of chromatin fragments at 10 nM measured after 48 hrs by DAPI staining based microscopic method. It counts as functional, cell-based.
The subject of assay [23] is PC-3M. Kind of assay: Induction of apoptosis in human PC-3M cells assessed as decrease of Bcl-2 expression at 1 to 10 nM measured by western blot assay. It is filed as functional, cell-based. As to conditions: dose 1-10 nM.
The test system of assay [24] is PC-3M. Description: Induction of apoptosis in human PC-3M cells assessed by irregular nucleus at 10 nM measured after 48 hrs by DAPI staining based microscopic method. It counts as functional, cell-based.
Assay [25] deals with PC-3M. Description: Antiproliferative activity against human PC-3M cells assessed as inhibition of cell proliferation measured after 9 days by Crystal violet staining based colony formation assay. It counts as functional. As to conditions: dose 5-10 nM, time 9.0 day.
Assay [26] concerns PC-3M. Kind of assay: Induction of apoptosis in human PC-3M cells assessed by formation of apoptotic bodies at 10 nM measured after 48 hrs by DAPI staining based microscopic method. It counts as functional, cell-based.

The source made the active and inactive calls. No cut-off for these calls is given here.

Sequence of RAC-alpha serine/threonine-protein kinase (Homo sapiens) (P31749 whole entry): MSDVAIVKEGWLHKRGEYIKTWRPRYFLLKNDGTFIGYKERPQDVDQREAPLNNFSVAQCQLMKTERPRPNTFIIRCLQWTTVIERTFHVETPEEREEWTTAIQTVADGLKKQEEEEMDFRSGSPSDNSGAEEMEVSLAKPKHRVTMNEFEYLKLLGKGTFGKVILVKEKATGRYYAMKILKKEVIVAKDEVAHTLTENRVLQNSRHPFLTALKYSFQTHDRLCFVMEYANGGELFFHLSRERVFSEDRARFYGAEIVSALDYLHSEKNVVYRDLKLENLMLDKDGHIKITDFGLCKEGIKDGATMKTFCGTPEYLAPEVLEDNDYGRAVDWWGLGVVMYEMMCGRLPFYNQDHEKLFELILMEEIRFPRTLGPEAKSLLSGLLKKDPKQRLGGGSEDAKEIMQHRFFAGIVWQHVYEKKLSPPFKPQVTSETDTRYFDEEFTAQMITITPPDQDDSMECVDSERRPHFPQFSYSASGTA

Consider `C/C=C/C(=O)O[C@H]1c2cc3c(cc2[C@@H](c2cc(OC)c(OC)c(OC)c2)[C@H]2C(=O)OC[C@@H]21)OCO3`, for which the IC50 in the assay on PC-3M [1] came to 12.4 nM; in the assay on MCF7, 80900 nM; with HMEC, 79.5 nM; in the assay on HepG2 it was 109000 nM; in the assay with A549, 40.2 nM.

For the compound `COc1cc([C@@H]2c3cc4c(cc3[C@H](O)[C@H]3COC(=O)[C@H]23)OCO4)cc(OC)c1OC` [PODOFILOX], the IC50 was 235 nM in the assay on PC-3M [1]; greater than 200000 nM in the assay on MCF7; 1340 nM in the assay with HMEC; greater than 200000 nM in the assay with HepG2; 5.37 nM with A549. For the same compound, the Activity with PC-3M [2] was 0.17%; in the assay on PC-3M [3] it was 20.9%; in the assay with PC-3M [4] it was 3.78%; in the assay on PC-3M [5], 3.31%; in the assay with PC-3M [6], 9.11%; in the assay with PC-3M [7], 3.17%. For the same compound, the Activity with PC-3M [9] was determined as 0.083%; in the assay on PC-3M [12], 0.11%; with PC-3M [13], 1.71%. Further, the viability at 0.01 µM in the assay with PC-3M [8] is 75.7%. Besides, the viability at 0.001 µM in the assay with PC-3M [10] was determined as 94.4%. Further, the viability at 0.005 µM with PC-3M [11] was 87.6%. Moreover, the outcome with PC-3M [14] was inactive.

In the case of `CC[C@H](C)[C@H](NC(=O)OC(C)(C)C)C(=O)O[C@H]1c2cc3c(cc2[C@@H](c2cc(OC)c(OC)c(OC)c2)[C@H]2C(=O)OC[C@@H]21)OCO3`, the IC50 came to 1070 nM in the assay with PC-3M [1]; 69900 nM in the assay with MCF7; 4480 nM with HMEC; 866 nM with HepG2; 7960 nM in the assay with A549.

As to `COc1cc([C@@H]2c3cc4c(cc3[C@H](OC(=O)c3ccncc3)[C@H]3COC(=O)[C@H]23)OCO4)cc(OC)c1OC` [4-O-PODOPHYLLOTOXINYL-ISONICOTINATE], the IC50 is 92.6 nM in the assay with PC-3M [1]; greater than 200000 nM in the assay with MCF7; 3720 nM in the assay on HMEC; 188000 nM in the assay on HepG2; 16.3 nM with A549.

`CCCCCCCCCCCCCCCCCC(=O)O[C@H]1c2cc3c(cc2[C@@H](c2cc(OC)c(OC)c(OC)c2)[C@H]2C(=O)OC[C@@H]21)OCO3`: the IC50 with PC-3M [1] is 2600 nM; in the assay with MCF7 it was greater than 200000 nM; in the assay with HMEC, 3070 nM; in the assay on HepG2 it was 141000 nM; in the assay on A549, 7320 nM.

As to `COc1cc([C@@H]2c3cc4c(cc3[C@H](OC(=O)CNC(=O)OC(C)(C)C)[C@H]3COC(=O)[C@H]23)OCO4)cc(OC)c1OC`, the IC50 in the assay on PC-3M [1] was found to be 1.28 nM; in the assay on MCF7, 144000 nM; with HMEC it was 768 nM; in the assay with HepG2 it was 50700 nM; in the assay with A549, 9.54 nM. Moreover, the Activity is 0.11% in the assay with PC-3M [2]; 29.9% in the assay with PC-3M [3]; “Dose-Dependent Effect” with PC-3M [17]; 5.53% with PC-3M [4]; 5.41% in the assay with PC-3M [5]; 12.7% with PC-3M [6]. The Activity result in the assay on PC-3M [19] is “Dose-Dependent Effect”; with PC-3M [20], “Dose-Dependent Effect”; in the assay with PC-3M [21] it was “Dose-Dependent Effect”; with PC-3M [7], 3.74%; in the assay with PC-3M [22] it was “Dose-Dependent Effect”; in the assay with PC-3M [23], “Dose-Dependent Effect”. The Activity is 0.14% in the assay on PC-3M [9]; 0.21% in the assay with PC-3M [12]; “Dose-Dependent Effect” with PC-3M [24]; 1.86% in the assay on PC-3M [13]; “Dose-Dependent Effect” with PC-3M [25]; “Dose-Dependent Effect” with PC-3M [26]. The outcome in the assay with PC-3M [15] was Active. The inhibition result (in [16]; in the assay on PC-3M [18]) was “Active” in each case. In addition, the viability at 0.01 µM in the assay with PC-3M [8] amounted to 64.4%. Besides, in the assay with PC-3M [10], the viability at 0.001 µM is 92.5%. The viability at 0.005 µM in the assay with PC-3M [11] is 83.4%.

Consider `COc1cc([C@@H]2c3cc4c(cc3[C@H](OC(=O)[C@H](CC(C)C)NC(=O)OC(C)(C)C)[C@H]3COC(=O)[C@H]23)OCO4)cc(OC)c1OC`, for which the IC50 in the assay with PC-3M [1] amounted to 8.98 nM; in the assay on MCF7, 140000 nM; in the assay with HMEC it was 2360 nM; in the assay with HepG2, 60300 nM; in the assay with A549 it was 6440 nM.

With `COc1cc([C@@H]2c3cc4c(cc3[C@H](OC(=O)c3sccc3Cl)[C@H]3COC(=O)[C@H]23)OCO4)cc(OC)c1OC`, the IC50 in the assay with PC-3M [1] was 965 nM; with MCF7, greater than 200000 nM; in the assay with HMEC, 116 nM; in the assay with HepG2, 149000 nM; in the assay with A549 it was 155 nM.

In the case of `CCCCCCCCCCCC(=O)O[C@H]1c2cc3c(cc2[C@@H](c2cc(OC)c(OC)c(OC)c2)[C@H]2C(=O)OC[C@@H]21)OCO3`, the IC50 was 1250 nM with PC-3M [1]; greater than 200000 nM in the assay with MCF7; 936 nM in the assay with HMEC; 53100 nM in the assay with HepG2; 539 nM with A549.
